# Measured values taken from patent publication US20260365684A1, “PHYTOSPHINGOSINE-3,4-CYCLICPHOSPHATE COMPOUND AND PHARMACEUTICAL COMPOSITION COMPRISING THE SAME” (AXCESO BIOPHARMA CO., LTD., priority 2022, published 2026).
# Experiments:
# [1] = system: amyloid beta monomer (monomeric Aβ, mAβ); assay: Expression of mAβ in brain of AD-induced animal model by fluorescence microscopy; assay type: in vivo; settings: mouse brain, 1 mg/kg i.p. once every 3 days for 2 weeks, FIG. 3
# Description: To determine the therapeutic effect on Alzheimer's Disease (AD), the effects on amyloid beta monomer (monomeric Aβ, mAβ) and Tau protein, which are biomarkers of AD, were analyzed in an AD-induced animal model.
# APP/PS/Tau transgenic mice were used as an AD-induced animal model. The compound of formula (1a-1) was administered intraperitoneally once every 3 days at a concentration of 1 mg/kg to 12-week-old transgenic mice for 2 weeks, and the expression of mAβ and Tau proteins in the mouse brain was measured after 1 and 4 weeks. After anesthetizing the mouse, the cervical region was incised with a dissecting tool, and then the occipital region was incised to remove both sides of the skull. The brain was washed with phosphate buffered saline (PBS) and fixed with 4% paraformaldehyde (Sigma, St Louis, MO, USA) for 12 hours at 4 °C. These were cut to a thickness of approximately 10 μm using a vibratome, and hippocampus and cortex sections were collected and placed in 24 wells. PBS was added to the wells containing the fixed tissue sections, and fluorescent nanoparticles (QD565, red fluorescence) conjugated with anti-amyloid antibodies and anti-Tau antibodies (Santa Cruz, USA) were added to each 2 μM, and reacted at 4 °C for 12 hours. The expression of mAβ and Tau was confirmed by fluorescence microscopy.
# [2] = system: pluripotent stem cells; assay: Differentiation of pluripotent stem cells into dopaminergic neurons; assay type: cell-based; settings: FIG. 5
# Description: Pluripotent stem cells were seeded in Aggre Well plates (stemcell) at 5,000 cells/microwell and cultured for 5 days in E6 medium (GIBCO) to induce embryonic body (EB) formation. For neural rosette formation, EBs were seeded into 35 mm dishes in groups of 30 and cultured for 10 days in N2bF medium. The 35 mm dishes were used after being coated with 15 μg/ml of poly-L-ornithine (sigma) and 1 μg/ml of fibronectin (sigma). The N2Bf medium composition was DMEM/F12 (GIBCO), N2 supplement (stemcell) 1×, 10% NEAA (GIBCO), 55 µM beta-Mercaptoethanol (GIBCO), bFGF (peprotech) 20 ng/ml. For the formation of spherical neural masses (SNMs), rosette masses were sliced and cultured in petri dishes with N2bF medium. SNMs were no larger than 500 UM in size and were sliced and cultured for 3 to 4 passages. After subculture of SNM, the clumps were broken into small pieces using a tungsten mesh (Nilaco) for the neural progenitor cell (NPC) culture step, and then attached to a PLO/FN-coated dish and cultured in N2bF medium. […]
# The effect of the compound of formula (1a-1) on differentiation into neurons was evaluated by comparing the expression of tyrosine hydroxylase (TH) and dopamine transporter (DAT) depending on the presence or absence of treatment with the compound of formula (1a-1).
# [3] = system: tyrosine hydroxylase (TH); assay: Tyrosine hydroxylase expression in differentiated SH-SY5Y dopaminergic neurons by western blot; assay type: cell-based, human; settings: FIG. 6
# Description: To analyze the effect on the expression of tyrosine hydroxylase (TH) and α-synuclein as neuron-specific proteins, western blot was performed.
# SH-SY5Y cell line was treated with retinoic acid and 12-O-tetradecanoylphorbol-13-acetate (TPA) to induce differentiation into TH-secreting neurons for 6 days.
# Differentiated dopaminergic neurons were lysed in PRO-PREP (Intronbio), a cell lysis solution containing protease inhibitor cocktail (Gendepot), and electrophoresed in 10% SDS polyacrylamide gels at 20 μg/well. Transfer was performed using PVDF (Merck millipore) as a membrane, and tyrosine hydroxylase antibody, «-synuclein antibody (Cell signaling), and β-actin antibody (Santa Cruz) were used for reaction for more than 2 hours. Protein expression was detected by staining with ECL substrate (Biorad) for development and graphed using the image J program.
# [4] = system: MYSEC (murine yolk sac endothelial cell) cell lines; assay: In vitro permeability of MYSEC cell line (LPS, trans well, HRP); assay type: cell-based; settings: FIG. 11A
# Description: Permeability was measured by an in vitro method using cell culture and in vivo method using Evans blue dye. To increase permeability, LPS was used in the in vitro method and CLP treatment was used in the in vivo method.
# To measure permeability by an in vitro method, MYSEC (murine yolk sac endothelial cell) cell lines were used. MYSEC cell lines were placed in the top chamber of a trans well at 2.5×10^5 cells/well and treated with 300 ng of lipopolysaccharide (LPS) derived from Gram-negative bacteria in the presence of the compound of formula (1a-1) for 24 hours. The medium in the top chamber was replaced with 300 μl of serum-free medium containing 5 μl of streptoavidin-HRP. After 5 minutes, 20 μl of the medium in the lower chamber was taken and the activity of HRP was measured as absorbance at 450 nm.
# To determine the mechanism by which the compound of formula (1a-1) improves permeability, the same experiment was performed by knocking down the SIRT1 protein in the MYSEC cell line.
smiles,measurement,setting,value
"CCCCCCCCCCCCCC[C@H]1OP(=O)(O)O[C@H]1[C@@H](N)CO.Cl [formula (1a-1), (4S,5R)-4-((S)-1-amino-2-hydroxyethyl)-2-hydroxy-5-tetradecyl-1,3,2-dioxaphosphoran-2-oxide hydrochloride]",red fluorescence for mAβ,[1]; 1 week and 4 weeks after,negligible red fluorescence for mAβ and Tau
same,expression of amyloid,[1],significantly reduced
same,differentiation of pluripotent stem cells into dopaminergic neurons,[2],can promote the differentiation of pluripotent stem cells into dopaminergic neurons
same,expression of TH,[3]; differentiated dopaminergic neurons treated with rotenone (RT),the expression of TH decreased by rotenone was restored
same,"effectiveness relative to resveratrol (control drug), TH expression",[3]; rotenone-treated differentiated dopaminergic neurons,more effective than resveratrol
same,"permeability, SIRT1 knockdown","[4]; MYSEC with knockdown of SIRT1 protein, LPS",does not show the effect
same,permeability,"[4]; MYSEC, 300 ng LPS, 24 hours",restores the LPS-induced increased permeability to normal
